The values below come from patent US9809799B2, “Methods for inactivating viruses during a protein purification process” (priority 2012, dated 2017).

One assay has as its system X-MuLV. Kind of assay: X-MuLV virus inactivation using caprylic acid and detergents in test tubes. The settings on record: for time for complete virus inactivation: clarified cell culture. The assay is classed as cell-based, xenotropic murine leukemia virus.
For assay [1], the system named is Herpes simplex virus-1 (HSV-1). The settings on record: 20° C., cell culture harvest broth; cited from earlier work.
In assay [2] the test system is Vesicular stomatitis virus (VSV). The settings on record: cited from earlier work.
Assay [3] relates to Friend murine leukemia virus (FrMuLV). The conditions noted are these: 0.5%, 4° C., within four hours; cited from earlier work.
Assay [4] concerns respiratory syncytial virus (RSV). The conditions noted are these: 0.5%, 4° C., within four hours; cited from earlier work.

A value given as a limit tells only on which side of the number the result lay.

As for `CCCCCCCC(=O)O` [Caprylate, caprylic acid], the “X-MuLV virus inactivation (LRV)” value is recorded as 0 in the assay with X-MuLV (MAb05 cell culture, 20 mM pH 5.5, time 0 min); 2.63 in the assay on X-MuLV (MAb05 cell culture, 20 mM pH 5.5, time 1 min); “≧3.8” in the assay with X-MuLV (MAb05 cell culture, 20 mM pH 5.5, time 5 min); “≧3.8” with X-MuLV (MAb05 cell culture, 20 mM pH 5.5, time 10 min); “≧3.8” in the assay with X-MuLV (MAb05 cell culture, 20 mM pH 5.5, time 20 min); 0 in the assay on X-MuLV (MAb05 cell culture, 200 mM pH 7, time 0 min). Also, the “X-MuLV virus inactivation (LRV)” value with X-MuLV (MAb05 cell culture, 200 mM pH 7, time 1 min) is reported as 2.91; in the assay with X-MuLV (MAb05 cell culture, 200 mM pH 7, time 5 min), “≧3.8”; in the assay with X-MuLV (MAb05 cell culture, 200 mM pH 7, time 10 min) it was “≧3.8”; in the assay with X-MuLV (MAb05 cell culture, 200 mM pH 7, time 20 min), “≧3.8”; with X-MuLV (Pure MAb07, 20 mM pH 5.5, time 0 min), 0; in the assay on X-MuLV (Pure MAb07, 20 mM pH 5.5, time 1 min), “≧3.1”. Further, the “X-MuLV virus inactivation (LRV)” value in the assay with X-MuLV (Pure MAb07, 20 mM pH 5.5, time 5 min) is “≧3.1”; with X-MuLV (Pure MAb07, 20 mM pH 5.5, time 10 min), “≧3.1”; in the assay on X-MuLV (Pure MAb07, 20 mM pH 5.5, time 20 min), “≧3.1”; in the assay on X-MuLV (Pure MAb07, 200 mM pH 7, time 0 min), 0; with X-MuLV (Pure MAb07, 200 mM pH 7, time 1 min), “≧3.1”; in the assay on X-MuLV (Pure MAb07, 200 mM pH 7, time 5 min), “≧3.1”. In addition, the “X-MuLV virus inactivation (LRV)” value with X-MuLV (Pure MAb07, 200 mM pH 7, time 10 min) was “≧3.1”; in the assay on X-MuLV (Pure MAb07, 200 mM pH 7, time 20 min), “≧3.1”. Besides, the “time for complete virus inactivation” value in the assay on X-MuLV (both pH and salinities) is listed as “requires a minimum of five minutes”. Further, the “time to complete inactivation” value in assay [1] is given as “less than 60 minutes”; in assay [2] (20° C., cell culture harvest broth), “less than 60 minutes”. In addition, the inactivation entry in assay [2] (5° C., after 120 minutes) is “only partial inactivation”.

As to Triton X, the “X-MuLV virus inactivation (LRV)” value was 0 in the assay on X-MuLV (MAb05 cell culture, 0.5%, time 0 min); “≧3.1” in the assay on X-MuLV (MAb05 cell culture, 0.5%, time 1 min); “≧3.1” with X-MuLV (MAb05 cell culture, 0.5%, time 5 min); “≧3.1” in the assay on X-MuLV (MAb05 cell culture, 0.5%, time 10 min); “≧3.1” with X-MuLV (MAb05 cell culture, 0.5%, time 20 min); 0 in the assay with X-MuLV (Pure MAb07, 0.5%, time 0 min). The “X-MuLV virus inactivation (LRV)” value with X-MuLV (Pure MAb07, 0.5%, time 1 min) is “≧3.1”; in the assay with X-MuLV (Pure MAb07, 0.5%, time 5 min), “≧3.1”; in the assay on X-MuLV (Pure MAb07, 0.5%, time 10 min) it was “≧3.1”; in the assay on X-MuLV (Pure MAb07, 0.5%, time 20 min), “≧3.1”. For the same compound, the “time for complete virus inactivation” value with X-MuLV (0.5%) is given as “complete virus inactivation after one minute”. Besides, the “Log 10 reduction values” in assay [3] is greater than 3.8; in assay [4] it was greater than 5.4.
